Patent publication US5430058A, “Pharmaceutical compositions comprising hydroxamate derivatives for iron removal” (Yeda Research and Development Co. Ltd., priority 1993, dated 1995)

Tests used:
[1] = system: uninfected red cells; experiment: Pre-incubation of uninfected red cells with chelator, effect on parasite growth; type: cell-based, human
Procedure: h. The effect of pre-incubation of red cells or plasma with drug on parasite growth. Red cell suspensions (5% hematocrit) in RPMI 1640 medium pH 7.4 (no plasma) were treated for 24-48 hrs with either 100 μg/ml of chelator or DMSO alone (<1% final concentration) in culture conditions. Chelator was removed by washing the cells 4 times with RPMI followed by 1 hour incubation at 37° C. Parasite growth was assayed after addition of gelatin enriched schizonts (>90%) as described above. Human plasma (2 ml) from O+ donors was adjusted to either pH 5 with MES (to enhance chelating efficiency) or pH 7.4 (with TRIS base), and treated for 18 hrs with 100 μg/ml chelators or with DMSO. The plasma was subsequently dialyzed for 24 hours against 800 ml 0.1% bovine serum albumin (BSA), and 10 mM glucose in phosphate buffered saline (PBS) pH 7.4, followed by an additional 24 hour dialysis against 400 ml of the same buffer and supplemented to the medium for parasite growth assays.
Plasma and uninfected red cells were separately treated with relatively high concentrations of chelators (100 μg/ml) in order to evaluate whether the site of action of the lipophilic chelators was associated with components of the plasma and/or the uninfected red cell.

[2] = system: normal red cells; experiment: Uptake of 59Fe-carrier complexes into normal red cells; type: cell-based, human; conditions: iron(III) complex, normal red cells
Procedure: k. Uptake of radioactive carrier-Fe complexes. DFO and the different SF derivatives were pre-complexed with iron by addition of concentrated stock solutions of 20 mg/ml carriers to ^59 FeCl3 (Amersham, England) in 0.5 ml of 150 mM NaCl, 10 mM Hepes at 3-5 molar excess of carrier for 1 hour at room temperature. To begin the flux, normal or parasitized red cells that had been washed 3 times in saline buffer and resuspended in the same buffer supplemented with 5% bovine serum albumin (BSA), 2.5 mM citrate, 2 mg/ml glucose were added to radioactive ^59 Fe-complexes at a final suspension of 20% hematocrit. After incubation at 37° C., 75 μl suspension was removed in duplicate aliquots for each time point, placed in plastic 15 ml test tube (Starstedt) and centrifuged 1 minute at 2,500 g. The supernatant was removed and the pellet immediately placed on ice. After all sampling was completed the pellets were washed twice in 15 ml of ice cold buffer containing 50 mM EDTA and lysed in distilled water. Radioactivity (Gamma emission, 700-1300 Kev) was counted and the cell number for each sample determined from hemoglobin absorption of the lysate at 410 nm.
Due to the fact that RSF's have markedly greater lipophilicity than DFO, they were expected to faster penetrate and therefore more effectively chelate intracellular iron after short exposure times. Penetration of RSF's into normal and infected red cells was estimated by monitoring uptake of the RSF's-^59 Fe(III) complexes into infected and uninfected cells and compared to DFO. In order to confirm actual uptake of Fe-RSF ileun2 rather than adsorption to the outer membrane, cells were thoroughly washed and lysates were subjected to 80,000g×20 min centrifugation. More than 90% of the total counts were found in the cytosol fraction (results not shown).
FIGS. 8a and 8b show uptake of Fe^59 -carrier complexes into normal and infected red cells. Uptake of ^59 -Fe-RSF (FIG. 8a) and ^59 Fe-DFO (FIG. 8b) into normal (open symbols) and infected (closed symbols) red cells (60% parasitemia, >90% trophozoites). The carriers were pre-complexed to ^59 FeCl3 at 4:1 ration in DMSO with 5 μM external FeCl3 (from methanolic stock solutions). The radioactive complexes were then added to 20% hematocrit cell suspensions and flux was measured. Specific activity was 485000 cpm/nmole and 369000 cpm/nmole for the RSF and DFO uptake experiments, respectively. Cell number was determined from hemoglobin absorption of lysate at 410 nm.

SMILES: CC[C@H](C)[C@H](NC(=O)CCOCC(CC)(COCCC(=O)N[C@H](C(=O)N(C)O)[C@@H](C)CC)COCCC(=O)N[C@H](C(=O)N(C)O)[C@@H](C)CC)C(=O)N(C)O [SF1-ileu]
- Ability of red cells to support parasite growth after pre-treatment ([1]; 24 hour exposure, 40 fold IC50, then washing): no significant effect
- Effect on ability of uninfected cells to support parasite growth ([1]; general statement): does not affect irreversibly the ability of uninfected cells to support parasite growth
- Time to maximum uptake [2]: 10 to 15 min
- Maximum uptake level ([2]; 5 μM external Fe): 4 nmoles/10^10 cells
- Uptake t1/2 ([2]; 5 μM external Fe): 2 to 3 min
